From patent US20080287398A1, “COLD MENTHOL RECEPTOR-1 ANTAGONISTS” (priority 2007, published 2008)
Values joined by “and” are separate entries in the source; they are usually repeats but may differ in a detail not shown here. Identical values can stand only once. Like-named read-outs stand apart in the source and are kept apart here.

Biological target: T1, canine TRPM8 (Canis lupus familiaris, UniProt Q1A7N1)
T1 construct: expressed in transfected cells
Experiment: In vitro canine TRPM8 functional assay (Ca2+-sensitive dye, FLIPR/FDSS, icilin activation)
Format: cell-based
Conditions: HEK293 cells expressing canine TRPM8, icilin activation; for % I (0.5 μM): 0.5 μM compound; for IC50: eight-point dose-response; for % I (1 μM): 1 μM compound
Summary of the method: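 HEK293 cells stably expressing canine TRPM8, loaded with Calcium 3 dye, preincubated with compound for 5 min before icilin at a concentration giving ~80% maximal response. Ca2+ fluorescence by FLIPR or FDSS; basal-subtracted, normalized to % maximal response, quadruplicate wells, sigmoidal fit for EC50/IC50.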

[1] = HEK293, read-out: % I (1 μM), 1 μM compound

T1 sequence (Q1A7N1 1-1104): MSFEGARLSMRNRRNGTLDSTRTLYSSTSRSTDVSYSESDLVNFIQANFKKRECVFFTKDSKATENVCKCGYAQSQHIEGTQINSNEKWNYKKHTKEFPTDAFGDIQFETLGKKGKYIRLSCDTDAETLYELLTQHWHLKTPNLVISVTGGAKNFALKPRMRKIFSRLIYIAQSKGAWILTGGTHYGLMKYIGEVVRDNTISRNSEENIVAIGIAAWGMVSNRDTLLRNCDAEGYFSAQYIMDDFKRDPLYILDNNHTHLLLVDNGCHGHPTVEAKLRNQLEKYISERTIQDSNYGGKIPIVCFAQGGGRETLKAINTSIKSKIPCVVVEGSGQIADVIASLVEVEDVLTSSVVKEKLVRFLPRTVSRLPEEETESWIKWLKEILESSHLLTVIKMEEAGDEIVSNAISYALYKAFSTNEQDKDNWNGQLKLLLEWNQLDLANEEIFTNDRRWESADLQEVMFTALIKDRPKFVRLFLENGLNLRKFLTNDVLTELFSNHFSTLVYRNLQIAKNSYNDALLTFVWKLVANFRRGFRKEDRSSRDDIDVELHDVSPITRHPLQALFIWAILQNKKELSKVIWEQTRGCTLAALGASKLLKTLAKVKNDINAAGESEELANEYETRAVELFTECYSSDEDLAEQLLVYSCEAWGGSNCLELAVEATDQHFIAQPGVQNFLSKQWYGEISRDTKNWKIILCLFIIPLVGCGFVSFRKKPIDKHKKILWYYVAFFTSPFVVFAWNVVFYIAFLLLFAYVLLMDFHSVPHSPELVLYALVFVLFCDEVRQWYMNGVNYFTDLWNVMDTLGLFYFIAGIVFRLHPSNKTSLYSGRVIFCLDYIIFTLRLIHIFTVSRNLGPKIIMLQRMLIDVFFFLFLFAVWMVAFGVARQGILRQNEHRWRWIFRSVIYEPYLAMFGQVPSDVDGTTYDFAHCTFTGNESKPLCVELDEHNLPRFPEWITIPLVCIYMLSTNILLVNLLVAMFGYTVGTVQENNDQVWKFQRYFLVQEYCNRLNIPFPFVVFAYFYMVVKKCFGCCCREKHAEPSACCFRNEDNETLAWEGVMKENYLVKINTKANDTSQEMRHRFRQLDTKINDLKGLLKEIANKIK

Compound	% I (0.5 μM)	IC50 (read-out: IC50)	also measured
CCOP(=O)(OCC)C(Cc1ccccc1OC)c1sc2ccccc2c1Br (stereo not drawn) [Cpd 320]	103%	0.028 µM	
CC(C)OP(=O)(OC(C)C)C(Cc1ccc(F)c(C(F)(F)F)c1)c1sc2cccc(F)c2c1Br (racemic) [Cpd 222]	103%	0.033 µM	
CC(C)OP(=O)(OC(C)C)C(Cc1c(F)c(F)c(O)c(F)c1F)c1sc2ccccc2c1Br (racemic) [Cpd 229]	95%	0.156 µM	
CCOP(=O)(OCC)C(Cc1cccc(C#N)c1)c1sc2ccccc2c1Br (stereo not drawn) [Cpd 309]	103%	0.088 µM	
(R)-[1-(3-Bromo-benzo[b]thiophen-2-yl)-2-(4-trifluoromethoxy-phenyl)-ethyl]-phosphonic acid diisopropyl ester [Cpd 237]	96% and 70%		
CCOP(=O)(OCC)C(Cc1ccc(O)c(F)c1)c1sc2ccccc2c1Br (racemic) [Cpd 226]	34%		
CCOP(=O)(OCC)C(Cc1ccc(OC)cc1)c1sc2ccccc2c1Br (stereo not drawn) [Cpd 321]	102%	0.043 µM	
CCOP(=O)(OCC)C(Cc1ccc(Cl)c(Cl)c1)c1sc2ccccc2c1-c1ccccc1 (stereo not drawn) [Cpd 64, [2-(3,4-Dichloro-phenyl)-1-(3-phenyl-benzo[b]thiophen-2-yl)-ethyl]-phosphonic acid diethyl ester]			inhibition at 1 µM [1]: 64%; IC50 (IC50 (μM)): 0.3 µM
[2-(3,4-Difluoro-phenyl)-1-(3-methyl-benzo[b]thiophene-2-yl)-ethyl]-[3-(4-methoxy-phenyl)-propyl]-phosphonic acid ethyl ester [Cpd 136]		0.42 µM	% I (1 μM): 91%
CCOP(=O)(OCC)C(Cc1ccc(F)c(F)c1)c1sc2c(F)cccc2c1C (stereo not drawn) [Cpd 8, [2-(3,4-Difluoro-phenyl)-1-(7-fluoro-3-methyl-benzo[b-]thiophene-2-yl)-ethyl]-phosphonic acid diethyl ester]			inhibition at 1 µM [1]: 100%; IC50 (IC50 (μM)): 0.037 µM
CC(C)OP(=O)(OC(C)C)C(Cc1ccc(C(F)(F)F)cc1)c1sc2ccccc2c1Cl (stereo not drawn) [Cpd 175]	104%	0.072 µM	
CCOP(=O)(OCC)C(Cc1ccc(F)cc1C(F)(F)F)c1sc2ccccc2c1Br (racemic) [Cpd 245]	103%	0.124 µM	
CCOP(=O)(OCC)C(Cc1ccccc1-c1ccccc1)c1sc2ccccc2c1C (stereo not drawn) [Cpd 115]			% I (1 μM): 69%
COc1ccc(CC(c2sc3ccccc3c2Br)P(=O)(OC(C)C)OC(C)C)cc1F (racemic) [Cpd 159]	103%	0.036 µM	
[2-(3,4-Difluoro-phenyl)-1-(3-methyl-benzo[b]thiophene-2-yl)-ethyl]-methyl-phosphonic acid ethyl ester [Cpd 30]		0.12 µM and 0.2 µM	% I (1 μM): 100% and 99%
CCOP(=O)(OCC)C(Cc1cccc(OC)c1)c1sc2ccccc2c1Br (stereo not drawn) [Cpd 314]	103% and 104%	0.029 µM and 0.021 µM	
CC(C)OP(=O)(OC(C)C)C(Cc1ccc(F)c(F)c1)c1sc2ccccc2c1C1CCCC1 (stereo not drawn) [Cpd 38]		0.14 µM	% I (1 μM): 99%
CCOP(=O)(OCC)C(Cc1ccc(OC(F)(F)F)c(Cl)c1)c1sc2ccccc2c1Cl (stereo not drawn) [Cpd 271]	103%	0.104 µM	
CCOP(=O)(OCC)C(Cc1cccc(C(F)(F)F)c1)c1sc2ccccc2c1Br (stereo not drawn) [Cpd 141]	100%	0.051 µM	
CCOP(=O)(OCC)C(Cc1cccc(O)c1)c1sc2ccccc2c1Br (stereo not drawn) [Cpd 316]	103% and 104%	0.032 µM and 0.02 µM	
CCOP(=O)(OCC)C(Cc1ccc(F)c(F)c1)c1sc2ccccc2c1-c1cccnc1F (stereo not drawn) [Cpd 128, {2-(3,4-Difluoro-phenyl)-1-[3-(2-fluoro-pyridin-3-yl)-benzo[b]thiophen-2-yl]-ethyl}-phosphonic acid diethyl ester]			inhibition at 1 µM [1]: 100%; IC50 (IC50 (μM)): 0.02 µM
CCOP(=O)(OCC)C(Cc1ccc(Cl)cc1)c1sc2ccccc2c1Cl (racemic) [Cpd 293]	103%	0.156 µM	
CCOP(=O)(OCC)C(Cc1ccc(OC(F)F)cc1)c1sc2ccccc2c1Br (stereo not drawn) [Cpd 311]	102%	0.053 µM	
CC(C)OP(=O)(OC(C)C)C(Cc1ccc(F)cc1C(F)(F)F)c1sc2ccccc2c1Cl (stereo not drawn) [Cpd 254]	103%	0.079 µM	
CC(C)OP(=O)(OC(C)C)C(Cc1ccc(F)c(F)c1)c1oc2ccccc2c1Br (stereo not drawn) [Cpd 124]		0.049 µM	% I (1 μM): 103%
CC(C)OP(=O)(OC(C)C)C(Cc1cccc(C(F)(F)F)c1Cl)c1sc2ccccc2c1Cl (stereo not drawn) [Cpd 177]	96%	0.139 µM	

Compound	% I (0.5 μM)	IC50 (read-out: IC50)	also measured
Cc1ccc2sc(C(Cc3ccc(F)c(F)c3)P(=O)(OC(C)C)OC(C)C)c(C)c2c1 (stereo not drawn) [Cpd 62, 2-(3,4-Difluoro-phenyl)-[1-(3,5-dimethyl-benzo[b]thiophen-2-yl)-ethyl]-phosphonic acid diisopropyl ester]		0.29 µM	inhibition at 1 µM (HEK293, 1 μM compound, read-out: % I (1 μM)): 95%
CCOP(=O)(OCC)C(Cc1ccc(F)c(F)c1)c1oc2ccccc2c1Br (stereo not drawn) [Cpd 266]		0.051 µM	% I (1 μM): 103%
CCOP(=O)(OCCN(C)C)C(Cc1ccc(F)c(F)c1)c1sc2ccccc2c1C (stereo not drawn) [Cpd 103, [2-(3,4-Difluoro-phenyl)-1-(3-methyl-benzo[b]thiophen-2-yl)-ethyl]-phosphonic acid 2-dimethylamino-ethyl ester ethyl ester]			inhibition at 1 µM [1]: 60%; IC50 (IC50 (μM)): 0.93 µM
CC(=O)n1c(C(Cc2ccc(F)c(C(F)(F)F)c2)P(=O)(OC(C)C)OC(C)C)c(Br)c2ccccc21 (stereo not drawn) [Cpd 331]	101%	0.152 µM	
COC(=O)COP(=O)(OCC(=O)OC)C(Cc1ccc(F)c(F)c1)c1sc2ccccc2c1Br (stereo not drawn) [Cpd 212, {[1-(3-Bromo-benzo[b]thiophen-2-yl)-2-(3,4-difluoro-phenyl)-ethyl]-methoxycarbonylmethoxy-phosphinoyloxy}-acetic acid methyl ester]		0.119 µM	inhibition at 0.5 µM (HEK293, 0.5 μM compound, read-out: % I (0.5 μM)): 102%
CC(C)OP(=O)(OC(C)C)C(Cc1ccc(F)c(Cl)c1)c1sc2ccccc2c1Br (racemic) [Cpd 248]	104%	0.021 µM	
CC(C)OP(=O)(OC(C)C)C(Cc1cc(F)cc(F)c1)c1sc2ccccc2c1Br (stereo not drawn) [Cpd 193]		0.059 µM	% I (1 μM): 103%
CC(C)OP(=O)(OC(C)C)C(Cc1cccc(F)c1)c1sc2ccccc2c1Br (stereo not drawn) [Cpd 192]		0.038 µM	% I (1 μM): 103%
CCOP(=O)(OCC)C(Cc1cccc(-n2cccc2)c1)c1sc2ccccc2c1Br (stereo not drawn) [Cpd 310]	102%	0.042 µM	
CCOP(=O)(OCC)C(Cc1ccccc1)c1cc2ccccc2s1 (stereo not drawn) [Cpd 74]		0.38 µM	% I (1 μM): 92%
CCOP(=O)(OCC)C(Cc1cccc(-c2ccccc2)c1)c1sc2ccccc2c1C (stereo not drawn) [Cpd 77]			inhibition at 1 µM [1]: 98%; IC50 (IC50 (μM)): 0.41 µM
CCOP(=O)(OCC)C(Cc1cccc(Cl)c1)c1sc2ccccc2c1Cl (racemic) [Cpd 290]	103%	0.115 µM	
CCOP(=O)(OCC)C(Cc1ccc(Cl)cc1)c1sc2ccccc2c1Br (stereo not drawn) [Cpd 257]	101%	0.026 µM	
CCOP(=O)(OCC)C(Cc1ccc(SC(F)(F)F)cc1)c1sc2ccccc2c1Br (racemic) [Cpd 153]	103%	0.043 µM	
CC(C)OP(=O)(OC(C)C)C(Cc1ccccc1F)c1sc2cccc(Br)c2c1Br (stereo not drawn) [Cpd 198]		0.357 µM	% I (1 μM): 98%
CC(C)OP(=O)(OC(C)C)C(Cc1cc(Cl)ccc1F)c1sc2ccccc2c1Cl (racemic) [Cpd 303]	102%	0.049 µM	
(R)-[1-(3-Bromo-benzo[b]thiophen-2-yl)-2-(4-fluoro-phenyl)-ethyl]-phosphonic acid diisopropyl ester [Cpd 240]	98% and 77%		
CCOP(=O)(OCC)C(Cc1cc2c(cc1Cl)OCO2)c1sc2ccccc2c1C (stereo not drawn) [Cpd 71]		0.36 µM	% I (1 μM): 98%
CC(C)OP(=O)(OC(C)C)C(Cc1ccc(O)c(F)c1)c1sc2ccccc2c1Br (racemic) [Cpd 227]	52%		
CCOP(=O)(OCC)C(Cc1ccccc1F)c1sc2ccccc2c1CN(C)C (stereo not drawn) [Cpd 114, [1-(3-Dimethylaminomethyl-benzo[b]thiophen-2-yl)-2-(2-fluoro-phenyl)-ethyl]-phosphonic acid diethyl ester]			inhibition at 1 µM [1]: 15%
CCOP(=O)(OCC)C(Cc1cccc(Cl)c1F)c1sc2ccccc2c1C (stereo not drawn) [Cpd 23]		0.096 µM	% I (1 μM): 100%
CCOP(=O)(OCC)C(Cc1ccc(F)c(F)c1)c1sc2ccccc2c1-c1ccc(F)nc1 (stereo not drawn) [Cpd 130, {2-(3,4-Difluoro-phenyl)-1-[3-(6-fluoro-pyridin-3-yl)-benzo[b]thiophen-2-yl]-ethyl}-phosphonic acid diethyl ester]			inhibition at 1 µM [1]: 100%; IC50 (IC50 (μM)): 0.11 µM
CC(C)OP(=O)(OC(C)C)C(Cc1ccc(OC(F)(F)F)c(Cl)c1)c1sc2ccccc2c1Cl (stereo not drawn) [Cpd 184]	104%	0.057 µM	
CCOP(=O)(Cc1cc2ccccc2s1)OCc1ccccc1Cl (racemic) [Cpd 105]		1.01 µM	% I (1 μM): 48%; % I (5 μM) (5 μM compound): 100%
CC(C)OP(=O)(OC(C)C)C(Cc1cccc(Cl)c1F)c1sc2ccccc2c1Br (stereo not drawn) [Cpd 267]		0.047 µM and 0.029 µM	% I (1 μM): 101% and 102%
CCOP(=O)(OCC)C(Cc1cc(C(F)(F)F)ccc1Cl)c1sc2ccccc2c1Br (racemic) [Cpd 148]	103%	0.172 µM	
